We go through 3 molecules from patent US20220402916A1, “SMALL MOLECULE INHIBITORS OF KRAS G12C MUTANT” (Merck Sharp & Dohme Corp., priority 2019, published 2022).

Like-named read-outs stand apart in the source and are kept apart here.

One test relates to NCI-H358 cells. Put plainly: Cellular phospho-ERK assay. The test is classed as cell-based. The conditions noted are these: Homo sapiens, NCI-H358, 2 h. The method, boiled down:
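15,000 cells/well seeded overnight, then dose-response compound treatment for 2 h at 37 °C in RPMI medium. Lysed and read by AlphaLISA SureFire Ultra multiplex; p-ERK/total ERK ratio as readout, IC50 from 4-parameter logistic fit.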

Test [1] addresses T1, Biotinylated KRAS G12C protein (Homo sapiens, UniProt P01116, C118S/C51S/C80L/G12C).
T1 construct: 183 amino acids; biotin on K10
Briefly: SOS-catalyzed nucleotide exchange assay. The test is classed as biochemical. The following applies: apparent potency; preincubation time of 60 minutes prior to addition of SOS.

Setting [2] is: NCI-H358 cells, 2 hour incubation, ratio of p-Erk vs total Erk, read-out: IC50.

T1 sequence (P01116 with tags, fused parts or gaps isoform P01116-2 G12C/C51S/C80L/C118S): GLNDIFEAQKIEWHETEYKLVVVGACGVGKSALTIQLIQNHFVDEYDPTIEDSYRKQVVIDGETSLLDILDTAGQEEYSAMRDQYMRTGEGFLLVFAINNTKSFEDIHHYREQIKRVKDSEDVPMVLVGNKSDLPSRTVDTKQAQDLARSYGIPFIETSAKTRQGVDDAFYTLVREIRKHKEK

In general, IC50 refers to the concentration at which inhibition is half-maximal. Regarding `C=C(F)C(=O)N1CCN(c2cc(C(=O)NC(C)CN3CCC(C)(O)C3)nc3c2CCN(c2cccc4cccc(C)c24)C3)C[C@@H]1CC#N` (single isomer, unassigned) [Compound 77, 4-((S)-3-(cyanomethyl)-4-(2-fluoroacryloyl)piperazin-1-yl)-N—((R or S)-1-((S or R)-3-hydroxy-3-methylpyrrolidin-1-yl)propan-2-yl)-7-(8-methylnaphthalen-1-yl)-5,6,7,8-tetrahydro-1,7-naphthyridine-2-carboxamide], the values for the half-inhibitory concentration (IC50) (in the test on NCI-H358 cells (setting [2]); in test [1]) were 611 nM and 5 nM, respectively.

As for `C=CC(=O)N1CCN(c2cc(C(=O)N3CCC[C@@H]3CN3CCCC3)nc3c2CCN(c2cccc4cccc(C)c24)C3)C[C@@H]1CC#N` [Compound 63, 2-((S)-1-acryloyl-4-(7-(8-methylnaphthalen-1-yl)-2-((R)-2-(pyrrolidin-1-ylmethyl)pyrrolidine-1-carbonyl)-5,6,7,8-tetrahydro-1,7-naphthyridin-4-yl)piperazin-2-yl)acetonitrile], the results for the IC50 (with NCI-H358 cells; in test [1]) were 427 nM and 8 nM, respectively.

On to `C=CC(=O)N1CCN(c2cc(C(=O)NC3(CN4CCCCC4)CC3)nc3c2CCN(c2cccc4cccc(C)c24)C3)CC1` [Compound 25, 4-(4-acryloylpiperazin-1-yl)-7-(8-methylnaphthalen-1-yl)-N-(1-(piperidin-1-ylmethyl)cyclopropyl)-5,6,7,8-tetrahydro-1,7-naphthyridine-2-carboxamide], for which the IC50 in the test with NCI-H358 cells (setting [2]) worked out at 5640 nM; in test [1] it was 74 nM.
